Tested on: pancreatic islets obtained from adipose tissue-derived cells
Experiment: Insulin secretion from pancreatic islets obtained from adipose tissue-derived cells, ELISA of culture supernatant
Format: cell-based, Human
Settings: 2 hours; for secretion of insulin: RPMI 1640 containing 3.3 mM or 16.7 mM glucose, FIG. 17
Experimental: The insulin level and the C-peptide level in the culture supernatant were measured using ELISA kit (Mercodia).

SMILES	secretion of insulin (100 μM)	amount (insulin, C-peptide) secreted by islets in medium containing theophylline versus medium without (10 mM theophylline control, 3.3 mM or 16.7 mM glucose, FIGS. 14-16)	secretion of insulin (10 μM)
Cn1c(=O)c2[nH]cnc2n(C)c1=O [theophylline]	promoted	similar	–
CCCCNC(=O)NS(=O)(=O)c1ccc(C)cc1 [tolbutamide]	–	–	promoted
CC(C)Cn1c(=O)n(C)c(=O)c2[nH]cnc21 [IBMX]	promoted	–	–
C[N+](C)(C)CCOC(N)=O [carbachol]	promoted	–	–

— US9428733B2, “Method for obtaining pancreatic endocrine cells from adipose tissue-origin cells” (AKIFUMI MATSUYAMA, priority 2005, dated 2016)
